The target in assay [1] is T1, TLR8 (Homo sapiens, UniProt Q9NR97).
T1 construct: host or cells: HEK-Blue hTLR8 (HEK293-derived SEAP reporter cells)
T1 sequence (Q9NR97 27-1041): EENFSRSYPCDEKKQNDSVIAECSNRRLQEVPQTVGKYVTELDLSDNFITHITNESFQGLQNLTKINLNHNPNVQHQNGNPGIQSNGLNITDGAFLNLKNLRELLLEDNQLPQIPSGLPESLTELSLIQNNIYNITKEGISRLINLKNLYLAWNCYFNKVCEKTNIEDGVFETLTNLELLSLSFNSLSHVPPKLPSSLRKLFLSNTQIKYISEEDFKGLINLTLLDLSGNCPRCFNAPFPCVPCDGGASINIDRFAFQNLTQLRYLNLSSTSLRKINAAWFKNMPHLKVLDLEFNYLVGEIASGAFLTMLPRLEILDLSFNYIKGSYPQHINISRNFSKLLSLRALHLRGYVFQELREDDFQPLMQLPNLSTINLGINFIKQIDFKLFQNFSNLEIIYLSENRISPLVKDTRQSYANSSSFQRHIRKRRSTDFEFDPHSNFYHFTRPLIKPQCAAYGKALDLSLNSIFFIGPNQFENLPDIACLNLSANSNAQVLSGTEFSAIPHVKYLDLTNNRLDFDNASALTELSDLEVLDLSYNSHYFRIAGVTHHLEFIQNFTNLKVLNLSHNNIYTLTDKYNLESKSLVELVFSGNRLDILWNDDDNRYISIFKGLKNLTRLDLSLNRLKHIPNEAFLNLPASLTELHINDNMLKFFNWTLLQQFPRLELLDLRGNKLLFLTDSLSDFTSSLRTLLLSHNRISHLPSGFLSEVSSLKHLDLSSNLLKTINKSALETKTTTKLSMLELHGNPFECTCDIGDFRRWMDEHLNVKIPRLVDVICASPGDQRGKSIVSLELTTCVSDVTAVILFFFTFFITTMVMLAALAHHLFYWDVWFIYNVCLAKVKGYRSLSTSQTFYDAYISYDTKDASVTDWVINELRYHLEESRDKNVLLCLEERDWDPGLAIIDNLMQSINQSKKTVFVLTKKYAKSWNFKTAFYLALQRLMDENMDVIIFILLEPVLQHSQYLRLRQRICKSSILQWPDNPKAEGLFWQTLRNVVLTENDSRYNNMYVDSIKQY
The experiment in a line: Inhibition of R848-induced signaling in HEK-Blue hTLR8 cell line (Quanti-Blue). It counts as cell-based. As to conditions: HEK-Blue hTLR8 cell line; for IC50: R848-induced signaling, value ± standard deviation, at least triplicate; for Remaining R848-induced TLR8 signaling (normalized activity; ligand+DMSO = 1, untreated = 0): ligand+DMSO = 100% activity. On the procedure:
(§1) HEK Blue hTLR8 cells or HEK Blue hTLR7 cells were cultured in DMEM medium supplemented with 10% fetal bovine serum, penicillin (100 U/mL) and streptomycin ([…]). Thereafter, cells were seeded in 96-well plate (45,000 cells per well), and were cultured for 24 hours in a humidified incubator (37° C., 5% CO2).
After 24 hours, the supernatant and suspending cells were aspirated and replaced with fresh serum-free DMEM.
(§2) After 24 hours, 50 μL of the medium was aspirated from each well and then added to a new 96-well plate, followed by the addition of 50 μL of Quanti-Blue in each well and the incubation at 37° C. in darkness. Changes in color would occur in the […] within 60 minutes, and the absorbance was measured at 620 nm by using the multi-mode plate reader Vrioskan Flash. Inhibition rate (%)=[R848 (OD620)−Compound (OD620)]/[R848 (OD620)−Control (OD620)]×100%. Among these, the control group was only added with the same amount of cells. Finally, the software Prism 6.0 was utilized to plot a graph and calculate IC50 values. Or, the activity of the cells treated with ligand and DMSO was defined as 100% activity, and the activity of the untreated cells was defined as 0% activity.

Assay [2] deals with T2, TLR7 (Homo sapiens, UniProt Q9NYK1).
T2 construct: host or cells: HEK-Blue hTLR7 (HEK293-derived SEAP reporter cells)
T2 sequence (Q9NYK1 27-1049): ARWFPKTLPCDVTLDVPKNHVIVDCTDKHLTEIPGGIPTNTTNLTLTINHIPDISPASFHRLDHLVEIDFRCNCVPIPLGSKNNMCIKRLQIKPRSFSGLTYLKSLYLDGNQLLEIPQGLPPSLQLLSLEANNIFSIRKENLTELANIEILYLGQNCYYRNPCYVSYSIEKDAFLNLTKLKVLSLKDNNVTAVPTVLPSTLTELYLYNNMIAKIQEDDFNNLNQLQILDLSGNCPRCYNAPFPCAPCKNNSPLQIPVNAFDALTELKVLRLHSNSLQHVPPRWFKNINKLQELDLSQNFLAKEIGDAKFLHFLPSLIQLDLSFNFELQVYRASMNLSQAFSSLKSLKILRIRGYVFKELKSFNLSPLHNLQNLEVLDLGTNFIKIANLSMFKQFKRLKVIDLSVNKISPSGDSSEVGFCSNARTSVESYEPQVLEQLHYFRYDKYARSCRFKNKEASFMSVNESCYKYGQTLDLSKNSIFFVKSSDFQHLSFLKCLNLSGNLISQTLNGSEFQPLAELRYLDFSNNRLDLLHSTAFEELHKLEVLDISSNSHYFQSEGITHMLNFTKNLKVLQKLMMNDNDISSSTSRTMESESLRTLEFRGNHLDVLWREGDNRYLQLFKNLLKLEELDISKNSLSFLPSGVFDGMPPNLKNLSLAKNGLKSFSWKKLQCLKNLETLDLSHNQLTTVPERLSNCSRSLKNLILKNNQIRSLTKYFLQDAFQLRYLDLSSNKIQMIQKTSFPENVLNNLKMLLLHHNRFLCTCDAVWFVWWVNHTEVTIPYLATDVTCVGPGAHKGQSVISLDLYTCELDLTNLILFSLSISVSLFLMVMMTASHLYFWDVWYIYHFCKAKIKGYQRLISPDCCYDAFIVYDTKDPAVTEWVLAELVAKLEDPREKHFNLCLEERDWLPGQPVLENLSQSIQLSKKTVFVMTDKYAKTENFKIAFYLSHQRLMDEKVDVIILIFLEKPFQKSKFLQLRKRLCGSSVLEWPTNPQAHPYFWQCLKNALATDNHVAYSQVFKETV
The assay can be described thus: Inhibition of R848-induced signaling in HEK-Blue hTLR7 cell line (Quanti-Blue). The format is cell-based. On the procedure:
as §1
After 24 hours, the supernatant and suspending cells were aspirated and replaced with fresh serum-free DMEM. Cells were treated with 1 μg/mL of R848 (agonist of TLR7/8) or 5 μg/mL of ssRNA40/LyoVec or 5 μg/mL of ORN06/LyoVec (InvivoGen) and compounds with specified concentrations, and were placed in a humidified incubator (37° C., 5% CO2) for co-culture.
as §2

This is an account of results in patent publication US20230002327A1, “SMALL-MOLECULE REGULATOR OF TLR8” (TSINGHUA UNIVERSITY, priority 2019, published 2023).

In assay [1], `Fc1cccc(-n2cnnc2SCc2c(Cl)cccc2Cl)c1` [Compound 1, 3-((2,6-dichlorobenyl)thio)-4-(3-fluorophenyl)-4H-1,2,4-triazole] displayed an IC50 of 1950 ± 190 nM. Consider `Cc1nnc(SCc2c(Cl)cccc2Cl)n1-c1cccc(F)c1` [Compound 2, 3-((2,6-dichlorobenzyl)thio)-4-(3-fluorophenyl)-5-methyl-4H-1,2,4-triazole], for which it took 6180 ± 290 nM to reach half-maximal inhibition in assay [1] (IC50). Against the preceding compound, the IC50 is about 3.2-fold higher.

In assay [1], `CSc1nnc(CCO)n1-c1ccc(Cl)cc1Cl` [Compound 4, 2-(4-(2,4-dichlorophenyl)-5-(methylthio)-4H-1,2,4-triazole-3-yl)ethan-1-ol] gave an IC50 of 590 ± 30 nM. This IC50 lies about 10-fold lower than the previous one. Turning to `CCCc1nnc(SC)n1-c1ccc(Cl)cc1Cl` [Compound 7, 4-(2,4-dichlorophenyl)-3-(methylthio)-5-propyl-4H-1,2,4-triazole], in assay [1], the IC50 is 630 ± 20 nM. On the same count and under the same terms, to `CCSc1nnc(CCCO)n1-c1ccc(Cl)cc1Cl` [Compound 11, 3-(4-(2,4-dichlorophenyl)-5-(ethylthio)-4H-1,2,4-triazole-3-yl)propan-1-ol] belongs 390 ± 40 nM. The same measure, in the same setting: to `CC(C)Sc1nnc(CCCO)n1-c1ccc(Cl)cc1Cl` [Compound 12, 3-(4-(2,4-dichlorophenyl)-5-(isopropylthio)-4H-1,2,4-triazole-3-yl)propan-1-ol] belongs 10100 ± 800 nM; to `OCCCc1nnc(SCC2CC2)n1-c1ccc(Cl)cc1Cl` [Compound 13, 3-(5-((cyclopropylmethyl)thio)-4-(2,4-dichlorophenyl)-4H-1,2,4-triazole-3-yl)propan-1-ol], 8010 ± 130 nM. In turn, `CSc1nnc(CCCO)n1-c1ccc(F)cc1F` [Compound 15, 3-(4-(2,4-difluorophenyl)-5-(methylthio)-4H-1,2,4-triazole-3-yl)propan-1-ol] had an IC50 in assay [1] of 2130 ± 560 nM.

In turn, `CSc1nnc(CCCO)n1-c1ccccc1Cl` [Compound 17, 3-(4-(2-chlorophenyl)-5-(methylthio)-4H-1,2,4-triazole-3-yl)propan-1-ol] had an IC50 in assay [1] of 980 nM. Against the preceding compound, the IC50 is about 2.2-fold lower.

`CSc1nnc(CCCO)n1-c1cccc(Cl)c1` [Compound 18, 3-(4-(3-chlorophenyl)-5-(methylthio)-4H-1,2,4-triazole-3-yl)propan-1-ol]: in assay [1], inhibition was half-maximal at 350 ± 20 nM (IC50). Compared with the last compound, the IC50 is about 2.8-fold lower. The same measure, in the same setting: to `CSc1nnc(CCCO)n1-c1ccc(Cl)c(Cl)c1` [Compound 19, 3-(4-(3,4-dichlorophenyl)-5-(methylthio)-4H-1,2,4-triazole-3-yl)propan-1-ol] belongs 190 ± 10 nM; to `CSc1nnc(CCCO)n1-c1cccc(Cl)c1Cl` [Compound 20, 3-(4-(2,3-dichlorophenyl)-5-(methylthio)-4H-1,2,4-triazole-3-yl)propan-1-ol], 800 ± 70 nM; to `CSc1nnc(CCCO)n1-c1c(Cl)cc(Cl)cc1Cl` [Compound 21, 3-(5-(methylthio)-4-(2,4,6-trichlorophenyl)-4H-1,2,4-triazole-3-yl)propan-1-ol], 2810 ± 440 nM. Still for that read-out and setting: under `CSc1nnc(CCCO)n1-c1ccc(Cl)c(Cl)c1Cl` [Compound 22, 3-(5-(methylthio)-4-(2,3,4-trichlorophenyl)-4H-1,2,4-triazole-3-yl)propan-1-ol] stands 600 ± 100 nM; under `CSc1nnc(CCCO)n1-c1cc(Cl)c(Cl)c(Cl)c1` [Compound 23, 3-(5-(methylthio)-4-(3,4,5-trichlorophenyl)-4H-1,2,4-triazole-3-yl)propan-1-ol], 110 ± 10 nM; under `COc1ccc(-n2c(CCCO)nnc2SC)cc1` [Compound 25, 3-(4-(4-methoxyphenyl)-5-(methylthio)-4H-1,2,4-triazole-3-yl)propan-1-ol], 3860 ± 310 nM. Same read-out and setting: to `CSc1nnc(CCCO)n1-c1ccc(C(F)(F)F)cc1` [Compound 26, 3-(5-(methylthio)-4-(4-(trifluoromethyl)phenyl)-4H-1,2,4-triazole-3-yl)propan-1-ol] belongs 4840 ± 820 nM; to `OCCCc1nnc(SCc2c(Cl)cccc2Cl)n1-c1ccc(F)cc1F` [Compound 33, 3-(5-((2,6-dichlorobenzyl)thio)-4-(2,4-difluorophenyl)-4H-1,2,4-triazole-3-yl)propan-1-ol], 8440 ± 780 nM. In the case of `OCCCCc1nnc(SCc2c(Cl)cccc2Cl)n1-c1ccc(F)cc1F` [Compound 34, 4-(5-((2,6-dichlorobenzyl)thio)-4-(2,4-difluorophenyl)-4H-1,2,4-triazole-3-yl)butan-1-ol], the IC50 in assay [1] stood at 11400 ± 700 nM.

`CSc1nnc(CCCO)n1-c1cnc2ccccc2c1` [Compound 36, 3-(5-(methylthio)-4-(quinolin-3-yl)-4H-1,2,4-triazole-3-yl)propan-1-ol]: half-maximal inhibition in assay [1] (IC50) was put at 740 nM. The same measure, in the same setting: under `CSc1nnc(CCCO)n1-c1ccc2ncccc2c1` [Compound 37, 3-(5-(methylthio)-4-(quinolin-6-yl)-4H-1,2,4-triazole-3-yl)propan-1-ol] stands 650 ± 10 nM. As to `CCOCc1nc(C(C)(C)O)c(-c2ccccc2)n1CC(C)(C)O` [Compound 47, 1-[2-(ethoxymethyl)-4-(2-hydroxypropan-2-yl)-5-phenyl-1H-imidazole-1-yl]-2-methylpropan-2-ol], the “TLR7 (normalized inhibitory effect on R848-induced signaling)” value in assay [2] stood at 0.8 ± 0.0. In addition, the “Remaining R848-induced TLR8 signaling (normalized activity; ligand+DMSO = 1, untreated = 0)” value in assay [1] is 0.9 ± 0.1. The corresponding values for `CCOCc1nc(-c2ccccc2)c(-c2ccccc2)n1CC(C)(C)O` [Compound 49, 1-[2-(ethoxymethyl)-4,5-diphenyl-1H-imidazole-1-yl]-2-methylpropan-2-ol] are 0.8 ± 0.0 and 0.6 ± 0.0. The matching figures for `CC(C)Cn1cnc(I)c1-c1ccccc1` [Compound 59, 4-iodo-1-(2-methylpropyl)-5-phenyl-1H-imidazole]: 0.2 ± 0.1 and 0.2 ± 0.1.

For orientation: IC50 means the concentration needed to halve the response being measured. A lower IC50 goes with greater potency.
